Source: ChEMBL document CHEMBL4602730, “In Vitro and in Vivo Evaluation of Membrane-Active Flavone Amphiphiles: Semisynthetic Kaempferol-Derived Antimicrobials against Drug-Resistant Gram-Positive Bacteria” (J Med Chem, 2020)
In brackets after ≈: the same amount, converted by molar mass. Activity calls are given as the source filed them. The calls are words filed in the database; no cut-off is given here.

Key:
[1] = Cytotoxicity in human MDA-MB-231 cells assessed as cell viability at 16 times MIC incubated for 24 hrs by CCK8 assay relative to control; format: cell-based; settings: read-out: Activity
Escherichia coli = assay: Antibacterial activity against Escherichia coli assessed as inhibition of bacterial growth incubated for 24 hrs by broth microdilution method; format: functional
Pseudomonas aeruginosa = assay: Antibacterial activity against Pseudomonas aeruginosa assessed as inhibition of bacterial growth incubated for 24 hrs by broth microdilution method; format: functional
Staphylococcus aureus [2] = assay: Induction of bacterial cell membrane integrity loss in Staphylococcus aureus ATCC 29213 incubated for 2 hrs propidium iodide and SYTO9 dye based LIVE/DEAD bacterial viability assay; format: functional, organism-based
Staphylococcus aureus [3] = assay: Induction of cytoplasmic membrane permeabilization in Staphylococcus aureus ATCC 29213 at 1 to 8 times MIC by SYTOX green dye based fluorescence assay; format: functional, organism-based
Staphylococcus aureus [4] = assay: Induction of cell surface disruption in Staphylococcus aureus ATCC 29213 at 8 times MIC incubated for 2 hrs by scanning electron microscopy; format: functional, organism-based
Staphylococcus aureus [5] = assay: Antibacterial activity against methicillin-resistant Staphylococcus aureus NCTC 10442 assessed as inhibition of bacterial growth incubated for 24 hrs by broth microdilution method; format: functional; settings: NCTC 10442, 24 h
Staphylococcus aureus [6] = assay: Antibacterial activity against Staphylococcus aureus ATCC 29213 assessed as inhibition of bacterial growth incubated for 24 hrs by broth microdilution method; format: functional; settings: ATCC 29213, 24 h
Staphylococcus aureus [7] = assay: Antibacterial activity against Staphylococcus aureus ATCC 29213 assessed as induction of bacterial killing at 4 times MIC incubated for 1 hrs followed by re-plating of cultures and measured after 24 hrs by time kill study relative to control; format: functional
Staphylococcus aureus [8] = assay: Antibacterial activity against Staphylococcus aureus ATCC 29213 assessed as bacterial cell killing at 4 times MIC incubated for 1 hrs followed by re-plating of cultures and measured after 24 hrs by time kill study relative to control; format: functional
[9] = Cytotoxicity in human MDA-MB-231 cells assessed as reduction in cell viability incubated for 24 hrs by CCK8 assay; format: cell-based
Staphylococcus aureus [10] = assay: Antibacterial activity against Staphylococcus aureus ATCC 29213 assessed as suppression of bacterial re-growth at 4 to 8 times MIC incubated for 0.5 to 24 hrs followed by re-plating of cultures and measured after 24 hrs by time kill study relative to control; format: functional, organism-based
Staphylococcus aureus [11] = assay: Resistance index, ratio of MIC for antibacterial activity against Staphylococcus aureus ATCC 29213 passed over 19 cycles in presence of compound for period of 19 consecutive days by broth microdilution method to MIC for antibacterial activity against Staphylococcus aureus ATCC 29213; format: functional
Staphylococcus aureus [12] = assay: Induction of cytoplasmic membrane permeabilization in methicillin-resistant Staphylococcus aureus NCTC 10442 at 1 to 8 times MIC by SYTOX green dye based fluorescence assay; format: functional, organism-based
[13] = Cytotoxicity in mouse corneal epithelial cells assessed as cell viability at 16 times MIC incubated for 24 hrs by CCK8 assay relative to control; format: cell-based; settings: read-out: Activity
Staphylococcus aureus [14] = assay: Antibacterial activity against Staphylococcus aureus ATCC 29213 assessed as induction of bacterial killing at 8 times MIC incubated for 0.5 hrs followed by re-plating of cultures and measured after 24 hrs by time kill study relative to control; format: functional
Staphylococcus aureus [15] = assay: Antibacterial activity against methicillin-resistant Staphylococcus aureus N315 assessed as inhibition of bacterial growth incubated for 24 hrs by broth microdilution method; format: functional; settings: N315, 24 h
[16] = Induction of hemolysis in rabbit RBC incubated for 1 hr; format: cell-based, Oryctolagus cuniculus, Erythrocyte; settings: rabbit red blood cells (erythrocytes)
Staphylococcus aureus [17] = assay: Antibacterial activity against Staphylococcus aureus ATCC 29213 assessed as induction of bacterial killing at 4 times MIC incubated for 8 hrs followed by re-plating of cultures and measured after 24 hrs by time kill study relative to control; format: functional

SMILES: COC(=O)[C@H](CCCNC(=N)N)NC(=O)COc1c(-c2ccc(OCC=C(C)C)cc2)oc2cc(OCC=C(C)C)cc(O)c2c1=O
- viability at 24 h, 16 times MIC [1]: 67.3%
- MIC (Escherichia coli): inactive
- MIC (Pseudomonas aeruginosa): inactive
- Activity (Staphylococcus aureus [2]): Active
- Activity (Staphylococcus aureus [3]): Active
- Activity (Staphylococcus aureus [4]): Active
- MIC (Staphylococcus aureus [5]): 4.8 µM (≈ 3.12 µg/mL)
- MIC (Staphylococcus aureus [6]): 4.8 µM (≈ 3.12 µg/mL)
- LCK (Staphylococcus aureus [7]): 3.19
- Activity (Staphylococcus aureus [8]): >=99.9%
- CC50 at 24 h [9]: > 50 µg/mL
- Activity (Staphylococcus aureus [10]): Active
- Ratio (Staphylococcus aureus [11]): <=4
- Activity (Staphylococcus aureus [12]): Active
- viability at 24 h, 16 times MIC [13]: 62.1%
- LCK (Staphylococcus aureus [14]): 3.78
- MIC (Staphylococcus aureus [15]): 2.4 µM (≈ 1.56 µg/mL)
- HC50 at 1 h [16]: 107 µM

SMILES: CN[C@H](CC(C)C)C(=O)N[C@H]1C(=O)N[C@@H](CC(N)=O)C(=O)N[C@H]2C(=O)N[C@H]3C(=O)N[C@H](C(=O)N[C@H](C(=O)O)c4cc(O)cc(O)c4-c4cc3ccc4O)[C@H](O)c3ccc(c(Cl)c3)Oc3cc2cc(c3O[C@@H]2O[C@H](CO)[C@@H](O)[C@H](O)[C@H]2O[C@H]2C[C@](C)(N)[C@H](O)[C@H](C)O2)Oc2ccc(cc2Cl)[C@H]1O [VANCOMYCIN]
- MIC (Staphylococcus aureus [5]): 1.08 µM (≈ 1.57 µg/mL)
- MIC (Staphylococcus aureus [6]): 0.54 µM (≈ 0.783 µg/mL)
- MIC (Staphylococcus aureus [15]): 1.08 µM (≈ 1.57 µg/mL)
- LCK (Staphylococcus aureus [17]): 1.18
